Assay results from patent US20240156790A1, “COMPOUNDS, COMPOSITIONS, AND METHODS FOR MODULATING FERROPTOSIS AND TREATING EXCITOTOXIC DISORDERS” (THE TRUSTEES OF COLUMBIA UNIVERSITY IN THE CITY OF NEW YORK, priority 2018, published 2024).
“Also recorded” adds a separate entry of the source.

Key:
[1] = Microsomal stability, mouse liver microsomes (Table 1); format: in vitro ADME, Mouse: CD1; settings: CD1, mouse, liver microsomes, Mouse: CD1; read-out: Microsomal Stability t1/2
Method: Each compound (1 μM) is incubated with mouse plasma, for 4 hours at 37° C., with shaking at 100 rpm. The concentration of compound in the buffer and plasma chambers is determined using LC-MS/MS. Metabolism of each compound is predicted using Sites of Metabolism (Schrodinger Suite), which combines intrinsic reactivity analysis (Hammett-Taft) with induced fit docking against 2C9, 2D6 and 3A4. This approach identifies 90% of known metabolism sites and has a false positive rate of 17%. The in vitro metabolic stability of each compound in mouse liver microsomes is determined. Pooled mouse liver microsomes are prepared and stored at −80° C. until needed. […]

[2] = Microsomal stability, dog (Table 1); format: in vitro ADME; settings: Dog: Beagle
Method: Each compound (1 μM) is incubated with mouse plasma, for 4 hours at 37° C., with shaking at 100 rpm. The concentration of compound in the buffer and plasma chambers is determined using LC-MS/MS. Metabolism of each compound is predicted using Sites of Metabolism (Schrodinger Suite), which combines intrinsic reactivity analysis (Hammett-Taft) with induced fit docking against 2C9, 2D6 and 3A4. This approach identifies 90% of known metabolism sites and has a false positive rate of 17%. The in vitro metabolic stability of each compound in mouse liver microsomes is determined. Pooled mouse liver microsomes are prepared and stored at −80° C. until needed. Compound stability in liver microsomes is measured at 0, 15, 30, 45 and 60 minutes in duplicate, using LC-MS/MS analysis.

[3] = Microsomal stability, pig (Table 1); format: in vitro ADME; settings: liver microsomes; Pig: Göttingen Minipig; read-out: Microsomal Stability t1/2
[4] = Plasma stability, mouse plasma (Table 1); format: in vitro ADME
[5] = Plasma stability, rat (Table 1); format: in vitro ADME
[6] = Plasma stability, pig (Table 1); format: in vitro ADME
[7] = tested on: HT-1080 cells; assay: Rescue activity of selected Fer-1 analogs, dose-response in HT-1080 cells (cell titer glo); format: cell-based
Method: Selected Fer-1 analogs containing a pyridine moiety (FIG. 4) were tested to examine their efficacy and overall potency in inhibiting ferroptosis. For each of these compounds, dose-response curves were generated in HT-1080 cells looking at the effectiveness of the molecules in inhibiting ferroptosis induced by either 3 μM IKE or 0.2 μM RSL3, Fer-1 was used as a positive control. For each dose-response curve, 1,000 cells/well were seeded in a 384 well plate and allowed to adhere overnight prior to treating with compound from a daughter plate. Cells were treated for 48 hours, unless otherwise noted, prior to viability being analyzed using cell titer glo (40 μL per well). All liquid handling was performed using the BioMek. All samples were prepared in triplicate, unless otherwise noted.

[8] = Human; value marked ^1, Hofmans et al., 2016; cited from earlier work
[9] = tested on: renal tubular ferroptosis; assay: Renal tubular ferroptosis model triggered by ferric nitrilotriacetate (Fe-NTA); format: in vivo, Sprague-Dawley rat
Method: Fe(NO3)3·12H2O (Wako, Osaka, Japan) and nitrilotriacetic acid disodium salt (Tokyo Chemical Industry, Tokyo, Japan) were dissolved in deionized water to generate 300 mM and 600 mM solutions, respectively, which were mixed immediately before injections by a ratio of 1:2 (v/v) and then adjusted to pH 7.4 with sodium carbonate to make Fe-NTA solution. PHB4082 was dissolved in 5% DMSO/95% of 65% v/v of 25% w/v 2-hydroxypropyl-β-cyclodextrin (Cayman Chemical) dissolved in 20% EtOH, 30% v/v Poly(ethylene glycol)-400 (Sigma Aldrich 202398), 5% v/v Tween 80 (Fluka 59924) to generate 2 mg/mL solution. The same formulation without PHB4082 was used as vehicle control. For both the solutions ultrasonic disruptor was applied to accelerate the dissolution and they are stored at −20° C. up to one week before injections.
Male wild-type Sprague-Dawley rat (CLEA Japan, Tokyo; n=6 for vehicle control, n=7 for PHB4082 pretreatment) at 4-6 weeks of age were fasted for 12 h prior to intraperitoneal administration of 2 mg/ml PHB4082 solution as pretreatment or with the formulation without PHB4082 as vehicle control. Two hours later all the rats were followed by IP injection of Fe-NTA with a dose of 10 mg iron/kg. The rats were euthanized 24 h after Fe-NTA injection. Fresh kidney tissues were excised and were either fixed in 10% phosphate-buffered formalin or preserved at −80° C. for subsequent analysis. The animal experiment committee of Nagoya University Graduate School of Medicine approved the animal experiments.
Immunostainings were performed by BOND MAX/III (Leica, Wetzlar, Germany) with BOND Polymer Refine Detection (ds9800; Leica) as described. Primary antibodies applied were listed as: anti-4-hydroxy-2-nonenal (HNE) modified proteins antibody (anit-HNEJ-1, in house), anti-transferrin receptor antibody (13-6800, Invitrogen). Quantitation of renal tubular ferroptosis was performed by measuring the necrotized cortical area after H&E staining by identifying the area of necrotized tubules with loss of nuclei. ImageJ was used for quantification of % necrosis area with randomly selected microscopic areas (×20, objective lens; n=9).
We evaluated the ferroptosis protection effect of PHB4082 in a renal tubular ferroptosis model. This model was previously established by Toyokuni lab (Kong et al. 2022; Toyokuni et al. 2022; Akatsuka et al. 2012). A Fenton-reaction based renal carcinogenesis in this model results from repeated intraperitoneal injections of ferric nitrilotriacetate (Fe-NTA). This iron chelate could specifically induce proximal epithelial ferroptosis via single IP administration. […] We chose 24 h after Fe-NTA administration for evaluation of the effects of PHB4082 because this is the peak time for renal tubular necrosis.

SMILES | half-life [1] [min] | Microsomal Stability, % remaining t = 120 [2] [%] | half-life [3] [min] | Plasma Stability at six hours (% remaining) [4] | Plasma Stability at six hours (% remaining) [5] | Plasma Stability at six hours (% remaining) [6] | death observed with RSL3 ([7]; 0.2 μM RSL3, inhibitor range 10 μM-0 μM) | rescue against IKE and erastin ([7]; inhibitor 1 μM-0 μM, 3 μM IKE, 10 μM erastin, 48 hours) [%] | Microsomal Stability t1/2 [8] [min] | HNE adducts in proximal tubules (HNEJ-1 immunostaining) ([9]; 24 h after Fe-NTA) | TfR1 / TRF1/CD71 signals in proximal tubules ([9]; 24 h after Fe-NTA) | necrotized renal tubular area ([9]; 24 h after Fe-NTA) | survival 24 h after Fe-NTA administration ([9]; IP pretreatment 2 h before Fe-NTA 10 mg iron/kg)
CCOC(=O)c1ccc(NC2CCCCC2)c(N)c1 [Fer-1, Ferrostatin-1, reference compound] | 2.4 | 49.5 ± 9.6 | 16.2 | 0-2% | 0-4% | Pig: 100% | No death was observed | ~50 | 6.9 ± 0.2 | – | – | – | –
Cc1noc(-c2ccc(NC3CCCCC3)c(NC3CCCCC3)c2)n1 [PHB4082, N1,N2-dicyclohexyl-4-(3-methyl-1,2,4-oxadiazol-5-yl)benzene-1,2-diamine] | – | – | – | – | – | – | – | – | – | less amounts of HNE adducts | low to moderate signals in the proximal tubules; also recorded: less signals for TRF1/CD71 | dramatically reduced the necrotized renal tubular area | all of those with PHB4082 pretreatment survived 24 hrs
